Test results as given in the supplement of paper PMC10307832.

Tests used:
Test in all cases: relative viability (nuclei count vs DMSO), 5 days (fraction); higher = more cells survive
[1] = compound: COC1=CC=C(C=C1)CN2C=CC3=C2C=C(C=C3)C(=O)NO + O=C(CCCCCCC(=O)Nc1ccccc1)NO [Vorinostat] (partner 1 µM)
Method in brief: (§1)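 Dosing by pin tool came one day after lung cancer cell lines were seeded in 1536-well plates, using either one drug or a fixed anchor-drug dose plus five library-drug doses (not always all listed) in √10 steps. After 5 days, nuclei were counted on 4× images. Relative viability is treated-well nuclei count divided by vehicle-well nuclei count, and values are medians of duplicate plates.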

Veliparib + AZD7762 = compound: C[C@]1(c2nc3c(C(N)=O)cccc3[nH]2)CCCN1 [Veliparib] + NC(=O)Nc1cc(-c2cccc(F)c2)sc1C(=O)N[C@H]1CCCNC1 [AZD7762] (partner 0.2 µM)
Method in brief: as §1

[2] = compound: COC1=CC=C(C=C1)CN2C=CC3=C2C=C(C=C3)C(=O)NO + CC(C)C[C@H](NC(=O)[C@H](Cc1ccccc1)NC(=O)c1cnccn1)B(O)O [Bortezomib] (partner 0.002 µM)
Method in brief: as §1

Veliparib + Phenformin = compound: C[C@]1(c2nc3c(C(N)=O)cccc3[nH]2)CCCN1 [Veliparib] + N=C(N)NC(=N)NCCc1ccccc1 [Phenformin] (partner 250 µM)
Method in brief: as §1

Cell Line | relative viability ([1]; first compound 0.08 µM) | relative viability ([1]; first compound 0.253 µM) | relative viability ([1]; first compound 0.8 µM) | relative viability ([1]; first compound 2.53 µM) | relative viability ([1]; first compound 8 µM) | relative viability (Veliparib + AZD7762; first compound 0.02 µM) | relative viability (Veliparib + AZD7762; first compound 0.06325 µM) | relative viability (Veliparib + AZD7762; first compound 0.2 µM) | relative viability (Veliparib + AZD7762; first compound 0.6325 µM) | relative viability (Veliparib + AZD7762; first compound 2 µM) | relative viability ([2]; first compound 0.08 µM) | relative viability ([2]; first compound 0.253 µM) | relative viability ([2]; first compound 0.8 µM) | relative viability ([2]; first compound 2.53 µM) | relative viability ([2]; first compound 8 µM) | relative viability (Veliparib + Phenformin; first compound 0.06325 µM) | relative viability (Veliparib + Phenformin; first compound 0.2 µM) | relative viability (Veliparib + Phenformin; first compound 0.6325 µM) | relative viability (Veliparib + Phenformin; first compound 2 µM) | relative viability (Veliparib + Phenformin; first compound 0.02 µM)
LC-2-ad | 0.58 | 0.742 | 0.748 | 0.701 | 0.592 | 0.606 | 0.822 | 0.865 | 0.876 | 0.801 | 0.964 | 0.989 | 1 | 0.959 | 0.769 | 0.551 | 0.631 | 0.589 | 0.472 | 
LOU-NH91 |  | 0.953 | 0.906 | 0.963 | 0.884 | 0.768 | 0.705 | 0.75 | 0.723 | 0.821 | 0.387 | 0.472 | 0.466 | 0.476 | 0.504 | 0.457 | 0.694 | 0.639 | 0.682 | 0.604
NCI-H1623 |  |  |  |  |  |  |  |  |  |  |  |  |  |  |  | 0.514 | 0.605 | 0.583 | 0.545 | 
NCI-H727 | 1.13 | 1.17 | 1.22 | 1.25 | 1.25 | 0.627 | 0.495 | 0.784 | 0.681 | 0.603 | 0.834 | 0.98 | 1.09 | 0.908 | 0.755 | 0.443 | 0.549 | 0.483 | 0.521 | 0.481
NCI-H2347 | 0.502 | 0.611 | 0.736 | 0.796 | 0.559 | 0.77 | 0.787 | 0.788 | 0.769 | 0.624 |  | 0.933 | 0.887 | 0.874 | 0.727 | 0.273 | 0.473 | 0.464 | 0.366 | 0.426
NCI-H1993 | 0.527 | 1.21 | 0.901 | 0.842 | 0.73 |  | 0.875 | 0.934 | 0.664 | 0.607 | 0.934 | 1.16 | 1.15 | 1.2 | 1.04 | 0.567 | 0.561 | 0.552 | 0.482 | 0.568
HCC-827 | 0.592 | 0.897 | 0.799 | 0.799 | 0.788 | 0.26 | 0.335 | 0.2 | 0.236 | 0.222 | 1.01 | 0.929 | 1.05 | 0.896 | 1.04 | 0.396 | 0.43 | 0.368 | 0.387 | 0.357
NCI-H1975 | 0.676 | 0.779 | 0.752 | 0.74 | 0.701 | 0.765 | 0.639 | 0.737 | 0.736 | 0.61 | 0.422 | 0.382 | 0.408 | 0.455 | 0.363 | 0.395 | 0.407 | 0.368 | 0.397 | 0.434
NCI-H1793 |  | 0.832 | 0.801 | 0.816 | 0.759 | 0.532 | 0.518 | 0.592 | 0.56 | 0.581 |  |  |  |  |  | 0.384 | 0.466 | 0.329 | 0.361 | 0.392
NCI-H1651 | 0.52 | 0.512 | 0.498 | 0.464 | 0.475 | 0.455 | 0.424 | 0.419 | 0.46 | 0.412 | 0.923 | 0.887 | 0.923 | 0.888 | 0.857 | 0.34 | 0.379 | 0.279 | 0.316 | 0.286
NCI-H1755 | 0.694 | 0.884 | 0.777 | 0.876 | 0.725 | 0.479 | 0.543 | 0.5 | 0.443 | 0.444 | 0.91 | 0.992 | 0.949 | 0.992 | 0.97 | 0.629 | 0.631 | 0.518 | 0.608 | 0.637
LCLC-103H | 0.647 | 0.832 | 0.868 | 0.748 | 0.613 | 0.794 | 0.73 | 0.702 | 0.75 | 0.687 | 0.982 | 0.998 | 1.11 | 1 | 1.06 | 0.353 | 0.341 | 0.325 | 0.327 | 0.328
NCI-H1915 | 0.326 | 0.49 | 0.48 | 0.514 | 0.492 | 0.661 | 0.643 | 0.517 | 0.556 | 0.519 | 0.769 | 0.921 | 0.989 | 0.924 | 1.02 | 0.36 | 0.345 | 0.36 | 0.361 | 0.379
HOP-62 | 0.39 | 0.666 | 0.528 | 0.748 | 0.531 | 0.567 | 0.65 | 0.621 | 0.463 | 0.598 | 0.893 | 0.841 | 0.912 | 0.853 | 0.946 | 0.61 | 0.61 | 0.613 | 0.723 | 0.514
HARA |  | 0.6 | 0.484 | 0.677 | 0.59 | 0.346 |  | 0.302 | 0.308 | 0.573 | 0.536 | 1.22 | 1.15 | 1.12 | 1.13 | 0.399 | 0.48 | 0.409 | 0.474 | 0.412
NCI-H520 | 0.601 | 0.775 | 0.682 | 0.664 | 0.712 |  |  |  |  |  | 0.218 | 0.722 | 0.64 | 0.751 | 0.525 | 0.558 | 0.761 | 0.538 | 0.578 | 0.709
NCI-H1395 |  | 0.634 | 0.816 | 0.84 | 0.574 | 0.454 | 0.359 | 0.411 | 0.405 | 0.405 |  |  |  |  |  | 0.421 | 0.437 | 0.393 | 0.408 | 0.355
NCI-H1792 |  |  |  |  |  | 0.479 | 0.485 | 0.548 | 0.569 | 0.533 | 0.95 | 0.945 | 0.979 | 0.931 | 0.7 | 0.213 | 0.398 | 0.328 | 0.247 | 0.212
